Results on one molecule are retold here after publication PMC12179625, “Development of an LC-MS/MS method for quantification of colistin and colistin methanesulfonate in human plasma and its application to stability studies and therapeutic drug monitoring” (Journal of Mass Spectrometry and Advances in the Clinical …, 2025).

Where a SMILES comes first, the peptide text is derived from it. Bridges are numbered along the chain shown (N, C = ends). [ ]: non-standard residue; d: D form. The star is where a group is joined. Heptanoyl(6-Me) = CC(C)CCCCC(=O)*; Dab = NCC[C@H](N)C(=O)O

The nature of data set [1]: Stability of colistin A and colistin B in plasma samples. The class given is in vitro ADME. The note with it: spiked human plasma, accuracy vs theoretical concentration, LC-MS/MS, mean ± SD, n = 3; for −80 °C freeze–thaw 3 times: three freeze–thaw cycles −80 °C to room temperature. On the procedure: The calibration standard samples and QC samples were both obtained by diluting the corresponding working solution with blank plasma at a ratio of 1:19. The concentrations of the calibration standard samples were 0.10, 0.25, 0.50, 1.0, 2.5, 5.0, 8.0 and 10 μg/mL while the concentrations of the QC samples were 0.10 (LLOQ), 0.30 (LQC), 2.0 (MQC), 7.5 (HQC), and 30 (DQC) μg/mL.
(§1) The SPE column was activated by using 1 mL of methanol followed by 2 mL of ultrapure water. Subsequently, 200 μL of either calibration standard samples, QC samples, or patient plasma samples were mixed with 100 μL of IS working solution and 700 μL of 1.43 % ammonia, This step is to ensure that the solution is in a non-acidic environment. This mixture was thoroughly vortexed to ensure homogeneity. The mixed samples were then loaded onto the Welch BRP SPE columns. After sequentially washing the column with a total of 4 mL of 1 % ammonia, the analytes were eluted twice with 200 μL of […] (30:70, v/v) containing 4 % formic acid. Ultimately, 400 μL total eluate was collected and analyzed by LC-MS/MS.
(§2) This study investigated the stability of colistin A and colistin B during the assay process, including the stability of plasma samples at room temperature for 24 h, the stability through three cycles of repeated freeze–thaw from −80 °C to room temperature, the stability during storage at −80 °C for three months, and the autosampler stability of processed samples at 4°C for 24 h. Three parallel samples were prepared for each condition. If the accuracy of the samples under storage conditions is within 85 % to 115 %, the stability is considered acceptable.

Data set [2] is described as follows: Autosampler stability of processed colistin samples. The note with it: autosampler 4 °C, accuracy, LC-MS/MS, mean ± SD, n = 3. The data set is classed as physicochemical. As for the experimental part:
as §1, §2

For the molecule `CC(C)CCCCC(=O)N[C@@H](CCN)C(=O)N[C@H](C(=O)N[C@@H](CCN)C(=O)N[C@H]1CCNC(=O)[C@H]([C@@H](C)O)NC(=O)[C@H](CCN)NC(=O)[C@H](CCN)NC(=O)[C@H](CC(C)C)NC(=O)[C@@H](CC(C)C)NC(=O)[C@H](CCN)NC1=O)[C@@H](C)O` [Colistin B, colistin B] ({Heptanoyl(6-Me)}-[Dab]T[Dab][Dab][Dab][dL]L[Dab][Dab]T; lactam 4-C), the “Frozen at −80 °C for 3 months” value in data set [1] (HQC 7.5 μg/mL) is recorded as 98.76 ± 4.29%; in data set [1] (LQC 0.30 μg/mL), 109.29 ± 3.71%. Further, the “Room temperature 24 h” value in data set [1] (HQC 7.5 μg/mL) was determined as 99.39 ± 1.70%; in data set [1] (LQC 0.30 μg/mL), 110.01 ± 3.95%. The “−80 °C freeze–thaw 3 times” value in data set [1] (HQC 7.5 μg/mL) came out at 99.13 ± 6.46%; in data set [1] (LQC 0.30 μg/mL), 110.17 ± 4.65%. In addition, the “Processed sample In the sampler at 4 °C for 24 h” value in data set [2] (SPE eluate (acetonitrile 30:70 with 4 % formic acid) of HQC 7.5 μg/mL plasma) was 106.46 ± 6.48%; in data set [2] (SPE eluate (acetonitrile 30:70 with 4 % formic acid) of LQC 0.30 μg/mL plasma), 108.54 ± 3.07%.
